{"source": "patent US20120202756A1", "about": "“USE OF PRODRUGS TO AVOID GI MEDIATED ADVERSE EVENTS” (priority 2009, published 2012)", "assay_in_all_cases": "microbe, parasite or virus in culture", "key": {"[1]": {"test_system": "Peptostreptococcus magnus", "details": "Finegoldia magna, read-out: Minimum inhibitory concentration"}, "[2]": {"test_system": "Porphyromonas endodontalis", "details": "read-out: Minimum inhibitory concentration"}, "Prevotella bivia": {"test_system": "Prevotella bivia", "details": "ATCC29303, read-out: Minimum inhibitory concentration"}, "[3]": {"test_system": "Staphylococcus saprophyticus", "details": "read-out: Minimum inhibitory concentration"}, "Corynebacterium jeikeium": {"test_system": "Corynebacterium jeikeium", "details": "read-out: Minimum inhibitory concentration"}, "Listeria monocytogenes": {"test_system": "Listeria monocytogenes", "details": "read-out: Minimum inhibitory concentration"}, "Streptococcus agalactiae": {"test_system": "Streptococcus agalactiae", "details": "read-out: Minimum inhibitory concentration"}}}
{"smiles": "CCC[C@@H]1C[C@@H](C(=O)N[C@@H]([C@H]2O[C@H](SC)[C@H](O)[C@@H](O)[C@H]2O)[C@H](C)Cl)N(C)C1", "note": "[Clindamycin, clindamycin, reference compound]", "values": [{"measurement": "MIC", "setting": "[1]", "value": 0.5, "unit": "µg/mL"}, {"measurement": "MIC", "setting": "[2]", "value": "≤ 0.03", "unit": "µg/mL"}, {"measurement": "MIC", "setting": "Prevotella bivia", "value": "≤ 0.03", "unit": "µg/mL"}, {"measurement": "MIC", "setting": "[3]", "value": 0.06, "unit": "µg/mL"}, {"measurement": "MIC", "setting": "Corynebacterium jeikeium", "value": "> 64", "unit": "µg/mL"}, {"measurement": "MIC", "setting": "Listeria monocytogenes", "value": 1, "unit": "µg/mL"}, {"measurement": "MIC", "setting": "Streptococcus agalactiae", "value": "≤ 0.03", "unit": "µg/mL"}]}
